Where two headings read alike, the source gives them in different places.
Columns and labels:
[1] = Compartmental PK modelling and repeat-dose simulation; parameters: species or system hamsters
Method: To support pharmacokinetic/pharmacodynamic (PKPD) analysis, data in mice and hamsters were also analyzed by compartmental modeling using Phoenix WinNonlin (version 8.2; Certara, Princeton, NJ). For each dose level, an extravascular dosing, single compartment disposition model was fit to the combined Day 1/Day 5 repeat dose plasma data. The model was parameterized with a single volume term (V/F), and with first order absorption (K01) and elimination (K10) rate constants. Initial values for the parameter estimates were obtained by fitting of the model to the Day 1 data at the lowest dose level only, and the same initial values were used across the dose range. Experimental data used in model fitting were the mean concentration-time profiles and the average dose administered to each group. The weighting scheme (1/Y2 for mouse and 1/Y for hamster) was selected based on goodness of fit of the peak region of the experimental profiles. Parameter estimates obtained through fitting were used to simulate full repeat-dose plasma concentration-time profiles with both once-daily and twice-daily (dosing at […]) administration at each dose level and treatment duration used in the efficacy studies.

[2] = tested on: L. infantum; assay: PK/PD analysis of liver burden versus cumulative unbound AUC; assay type: in vivo, hamsters; settings: Hamster – L. infantum; estimated using the fitted parameters
Source text: To determine the correlation between the pharmacokinetic (PK) and pharmacodynamic (PD) data, repeat dose profiles in mice and hamsters following single and twice daily dosing were simulated using the fitted parameters.
Other parameters were less well correlated to efficacy, presumably given that none reflect the cumulative exposure profile with an extended treatment regimen. […] Results for mice infected with L. donovani were similar to those for L. infantum (Table S15).

[3] = molecular target: complex III of L. donovani (Leishmania donovani, UniProt A5HU08); assay: Complex III assay in mitochondria-enriched cell lysates
Sequence of complex III of L. donovani (A5HU08 1-290): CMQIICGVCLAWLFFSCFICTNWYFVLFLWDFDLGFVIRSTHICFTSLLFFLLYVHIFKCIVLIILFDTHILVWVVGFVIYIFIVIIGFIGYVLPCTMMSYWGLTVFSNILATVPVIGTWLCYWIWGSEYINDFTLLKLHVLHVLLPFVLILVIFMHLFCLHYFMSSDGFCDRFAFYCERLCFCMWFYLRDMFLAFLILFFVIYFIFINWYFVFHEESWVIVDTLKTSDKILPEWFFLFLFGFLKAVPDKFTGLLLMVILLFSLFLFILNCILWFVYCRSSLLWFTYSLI
Sequence of complex III of L. donovani (A0A3S7WPP0 1-258 partner): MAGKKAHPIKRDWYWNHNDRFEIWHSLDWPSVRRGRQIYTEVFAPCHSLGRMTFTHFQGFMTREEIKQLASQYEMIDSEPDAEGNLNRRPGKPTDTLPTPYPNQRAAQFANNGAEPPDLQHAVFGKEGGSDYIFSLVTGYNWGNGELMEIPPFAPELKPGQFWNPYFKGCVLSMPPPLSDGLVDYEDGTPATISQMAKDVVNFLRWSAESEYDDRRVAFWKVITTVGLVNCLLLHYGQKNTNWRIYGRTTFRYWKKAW
Method: Measurement of complex III activity and inhibition were performed as described previously ([6]).

[4] = In vitro metabolism, cryopreserved hepatocytes; assay type: in vitro ADME, human
Method: Cell viability was determined using trypan blue exclusion. The incubation was performed on a plate shaker (Heidolph Titrimax 100, 900 rpm) placed in a humidified incubator (37°C, 7.5% CO2) for 240 min. The reaction was initiated with the addition of compound with samples taken periodically and quenched with the addition of acetonitrile containing internal standards (metolazone and diazepam). Quenched samples were maintained on ice for approximately 20-30 min, centrifuged (for 5 min) and the supernatant analyzed by LC-MS.
(§1) In vitro intrinsic clearance (CLint, μL/min/mg or μL/min/10^6 cells) values were calculated from the apparent first order degradation rate constant divided by the microsome concentration or the hepatocyte cell number (10^6 viable cells/mL). In vitro CLint values were then divided by the fraction unbound in the in vitro test system (to give CLint,u) and scaled to in vivo values (mL/min/kg) using published physiological scaling factors ([28]). Blood clearance in each species was then calculated using the well-stirred model of hepatic extraction (equation 2) where Q is the hepatic blood flow and fu,blood is calculated from fu,plasma/B:P: [2] PredictedCLblood=Q x fu,blood x CLint,u/Q+fu,blood x CLint,u
(§2) Blood clearance values were converted to plasma clearance by multiplying by the B:P.

[5] = In vitro metabolism, liver microsomes; assay type: in vitro ADME, dog
Method: Compounds were spiked into microsomal matrix prepared in 0.1 M pH 7.4 phosphate buffer containing magnesium chloride (final concentration of 3.3 mM), equilibrated for 5-10 min at 37°C. The reaction was initiated with the addition of freshly prepared solution of NADPH (final 1.3 mM). Control samples without co-factor were included for comparison. Aliquots of the reaction mixtures were taken periodically over 60 min and quenched with acetonitrile containing internal standards (metolazone and diazepam). Quenched samples were maintained on ice for approximately 20-30 min, centrifuged (for 5 min) and the supernatant was analyzed by LC-MS.
as §1, §2

[6] = In vitro cytotoxicity assay; assay type: cell-based; settings: human, HFF human foreskin fibroblasts
[7] = hamster, plasma, po, Hamsters, 12.5 mg/kg, fitted
[8] = hamster, plasma, po, Hamsters, 25 mg/kg, fitted
[9] = hamster, plasma, po, Hamsters, 50 mg/kg, fitted
[10] = hamsters, 3.125 mg/kg bid, 5 days, simulated
[11] = hamsters, 12.5 mg/kg bid, 5 days, simulated
[12] = hamsters, 12.5 mg/kg qd, 5 days, simulated
[13] = hamsters, 25 mg/kg qd, 5 days, simulated
[14] = hamsters, 50 mg/kg qd, 5 days, simulated

## Cc1[nH]c2nc(N)nc(C)c2c1-c1ccc(C#N)c2c1OCO2 [DNDI-6174]
[1]; Hamsters, 12.5 mg/kg, fitted
  K01: 0.321 h⁻¹
  K10: 0.336 h⁻¹
  V/F: 1.57 L/kg
[1]; Hamsters, 25 mg/kg, fitted
  K01: 0.298 h⁻¹
  K10: 0.295 h⁻¹
  V/F: 1.75 L/kg
[1]; Hamsters, 50 mg/kg, fitted
  K01: 0.660 h⁻¹
  K10: 0.184 h⁻¹
  V/F: 1.83 L/kg
[1]; hamster, plasma, po, 3.125 mg/kg, hamsters, 3.125 mg/kg bid, 5 days, simulated
  Cmax: 341 ng/mL
[1]; hamster, plasma, po, 12.5 mg/kg, Hamsters, fitted
  Cmax: 2850 ng/mL
[1]; hamster, plasma, po, 12.5 mg/kg, hamsters, 12.5 mg/kg bid, 5 days, simulated
  Cmax: 3690 ng/mL
[1]; hamster, plasma, po, 12.5 mg/kg, hamsters, 12.5 mg/kg bid, 5 days, simulated, read-out: AUC24 ss
  AUC: 47.6 µg·h/mL
[1]; hamster, plasma, po, 12.5 mg/kg, hamsters, 12.5 mg/kg bid, 5 days, simulated, read-out: Cum AUC
  AUC: 238 µg·h/mL
[1]; hamster, plasma, po, 12.5 mg/kg, hamsters, 12.5 mg/kg qd, 5 days, simulated
  Cmax: 2880 ng/mL
[1]; hamster, plasma, po, 12.5 mg/kg, hamsters, 12.5 mg/kg qd, 5 days, simulated, read-out: AUC24 ss
  AUC: 23.8 µg·h/mL
[1]; hamster, plasma, po, 12.5 mg/kg, hamsters, 12.5 mg/kg qd, 5 days, simulated, read-out: Cum AUC
  AUC: 119 µg·h/mL
[1]; hamster, plasma, po, 25 mg/kg, Hamsters, fitted
  Cmax: 5280 ng/mL
[1]; hamster, plasma, po, 25 mg/kg, hamsters, 25 mg/kg qd, 5 days, simulated
  Cmax at 5 days: 5330 ng/mL
[1]; hamster, plasma, po, 25 mg/kg, hamsters, 25 mg/kg qd, 5 days, simulated, read-out: AUC24 ss
  AUC: 48.6 µg·h/mL
[1]; hamster, plasma, po, 25 mg/kg, hamsters, 25 mg/kg qd, 5 days, simulated, read-out: Cum AUC
  AUC: 243 µg·h/mL
[1]; hamster, plasma, po, 50 mg/kg, Hamsters, fitted
  Cmax: 15600 ng/mL
[1]; hamster, plasma, po, 50 mg/kg, hamsters, 50 mg/kg qd, 5 days, simulated
  Cmax: 17000 ng/mL
[1]; hamster, plasma, po, 50 mg/kg, hamsters, 50 mg/kg qd, 5 days, simulated, read-out: AUC24 ss
  AUC: 148 µg·h/mL
[1]; hamster, plasma, po, 50 mg/kg, hamsters, 50 mg/kg qd, 5 days, simulated, read-out: Cum AUC
  AUC at 5 days: 742 µg·h/mL
[1]; [7]
  AUC(0-inf): 23600 ng·h/mL
  CL/F: 8.75 mL/min/kg
[1]; [8]
  AUC(0-inf): 48400 ng·h/mL
  CL/F: 8.58 mL/min/kg
[1]; [9]
  AUC(0-inf): 140000 ng·h/mL
  CL/F: 5.62 mL/min/kg
[1]; [10]
  Cmax (unbound): 0.031 µg/mL
  Cmin: 0.013 µg/mL
  Cmin (unbound): 1 ng/mL
[1]; [11]
  AUC24 ss (unbound): 4.28 µg·h/mL
  Cav ss: 1.98 µg/mL
  Cav ss (unbound): 0.178 µg/mL
  Cmax (unbound): 0.332 µg/mL
  Cmin: 0.238 µg/mL
  Cmin (unbound): 21 ng/mL
  Cum AUC (unbound): 21.4 µg·h/mL
[1]; [12]
  AUC24 ss (unbound): 2.14 µg·h/mL
  Cav ss: 0.991 µg/mL
  Cav ss (unbound): 0.089 µg/mL
  Cmax (unbound): 0.259 µg/mL
  Cmin: 0.023 µg/mL
  Cmin (unbound): 2 ng/mL
  Cum AUC (unbound): 10.7 µg·h/mL
[1]; [13]
  AUC24 ss (unbound): 4.37 µg·h/mL
  Cav ss: 2.02 µg/mL
  Cav ss (unbound): 0.182 µg/mL
  Cmax (unbound): 0.480 µg/mL
  Cmin: 0.083 µg/mL
  Cmin (unbound): 7 ng/mL
  Cum AUC (unbound): 21.9 µg·h/mL
[1]; [14]
  AUC24 ss (unbound): 13.4 µg·h/mL
  Cav ss: 6.19 µg/mL
  Cav ss (unbound): 0.557 µg/mL
  Cmax (unbound): 1.53 µg/mL
  Cmin: 0.463 µg/mL
  Cmin (unbound): 42 ng/mL
  Cum AUC (unbound): 66.8 µg·h/mL
[2]
  unbound ED95: 3.6
[3]; lysates from axenic amastigote stage
  IC50: 2 ± 0.5 nM
[3]; lysates from promastigote stage
  IC50: 8 ± 1.7 nM
[4]; Human
  Hepatocyte predicted in vivo CLplasma: 0.31 mL/min/kg
[4]; human, cryopreserved hepatocytes
  hepatocyte CLint at 0.5 µM: 1.1 ± 0.27 µL/min/1e6 cells
[5]; Dog
  Microsome predicted in vivo CLplasma: 0.91 mL/min/kg
[5]; Dog, 2 independent experiments
  In vitro Microsome CLint: 4.8 ± 0.47 µL/min/mg
[5]; dog, liver microsomes, pH 7.4, Dog, 2 independent experiments, read-out: In vitro Microsome CLint
  microsomal CLint at 0.5 µM: 8.3 ± 0.65 µL/min/mg
[6]
  CC50: > 64 µM

— article PMC7615677 (Science translational medicine, 2023)
